Series [1] is described as follows: Drug tolerance during chronic oral administration (body weight, behavior). Type of series: in vivo, mice. As to the method:
(FIGS. 1C-D) Body weights of male nontransgenic (NTG) or hTauP301S mice treated with S3QEL2 (FIG. 1C) (S3, 5 mg/kg/day, PO in almond butter), S1QEL1.1 (FIG. 1D) (10 mg/kg/day, PO in almond butter), or vehicle. (FIG. 1E) Levels of S3QEL2 in the mouse brain following almond butter (AB) or chow administration at indicated doses for 21 days. (n=15 mice per dose). n=3-15 wild-type mice per condition. (FIG. 1F) Body weight of 4-5-month-old wild-type male mice treated with formulated chow containing S3QEL2 at indicated doses and durations (n=15 mice per dose).
A series of pharmacokinetic and drug tolerance experiments with S3QEL2 in adult wild-type and transgenic hTauP301S mice was first performed. Different administration routes and drug formulations were tested. […] Chow that was formulated to deliver 0, 5, 15, or 30 mg/kg/day of S3QEL2 was also tested.

The subject of series [2] is tau. Kind of series: Western blotting of phospho-tau and total tau in hippocampal tissue of hTauP301S mice. Format: in vivo. The settings on record: 6 weeks oral dosing. The source says:
Levels of phospho-tau (FIG. 5A) and total tau (FIG. 5B) as measured by Western blotting in hippocampal tissue from male nontransgenic (NTG) and hTauP301S mice after 6 weeks of oral dosing with S3QEL2 or vehicle. n=3-6 mice per group. *p<0.05, **p<0.01, ***p<0.001, ANOVA with Dunnett's test.
As assessed by immunolabeling, hTauP301S mice treated with S3QEL2 also had reduced levels of glial fibrillary acidic protein (GFAP)-positive astrogliosis and phosphorylated tau (FIG. 7). Western blotting confirmed reduced levels of phosphorylated but not total tau in these mice (FIG. 5).

The test system of series [3] is isolated microglia. Put plainly: Markers of reactivity and immune signaling in isolated microglia (qRT-PCR). Type of series: cell-based, mice. Particulars: S3QEL2 20 μM, 24 h. Here is the method:
Microglia isolated from P2-P3 mice were treated with lipopolysaccharide (LPS, 100 ng/ml) or oligomeric Aβ (3 μM), and S3QEL2 (20 μM) or vehicle for 24 h and analyzed by qRT-PCR. n=3 wells per condition.

Series [4] concerns U-87 MG glioblastoma cells. Put plainly: Glioblastoma cell proliferation, CellTiter-Glo luciferase assay, U-87 MG. Format: cell-based, human. The settings on record: 0-50 μM, 72 and 96 h. Here is the method: Relative cell density was measured using the CellTiter-Glo luciferase assay. n=3 wells per condition. *p<0.05, **p<0.01, ***p<0.001 vs. 0 μM, one-way ANOVA with Dunnett's multiple comparisons test.
The effect of S3QELs on proliferation of glial tumor cells that have different oncogenic mutations was assessed. In particular, proliferation rates were assessed in three different human immortalized glioblastoma cells lines (A-172, T98G, and U-87 MG). A-172 and U-87 lines have mutations in PTEN, a phosphatase that indirectly regulates PI3K activities, whereas T98G cell line has a mutation in p53, a well-known tumor suppressor gene. STAT3 can affect PI3K signaling and p53 transcription and could thereby promote glioblastoma cell proliferation. Whether S3QELs reduce glioblastoma cell proliferation and aberrant intracellular signaling was tested.
Briefly, two complementary methods were used to assess cell proliferation, including the CellTiter-Glo assay and DAPI staining of cell nuclei. The effects of S3QEL2 treatment on A-172, T98G, and U-87 MG cells were measured at different drug concentrations (0, 6, 20, 30, 40, or 50 μM) and time-points after treatment (72 or 96 hours). S3QEL2 inhibits proliferation of A-172 and T98G glioblastoma cells in a highly dose-dependent manner and these effects are similar at different time-points (FIG. 15A-B).

The test system of series [5] is astrocytic H2O2 production. Kind of series: Released H2O2 from primary astrocytes (Amplex UltraRed). Format: cell-based, mice. The settings on record: S3QEL2 20 μM, S3QEL1.2 1 μM, approximately 24 h. Here is the method:
(FIG. 17A) Astrocytes isolated from P2-P3 mice were treated with A1 cocktail consisting of 30 ng/ml TNF-α, 3 ng/ml IL-1α, and 400 ng/ml Clq, and S3QEL1.2 (3 μM) or vehicle for approximately 6 h and analyzed by Western blotting. Phospho-STAT3 levels were normalized to total STAT3 per sample. n=6 wells per condition. **p<0.01, ***p<0.001, one-way ANOVA with Dunnett's multiple comparisons test. (FIG. 17B) Astrocytes isolated from P2-P3 mice were treated with A1 cocktail consisting of 30 ng/ml TNF-α, 3 ng/ml IL-1α, and 400 ng/ml Clq for 24 h, and analyzed for levels of released H2O2 using Amplex UltraRed, a fluorogenic substrate that is a highly sensitive indicator of H2O2, in the presence of horseradish peroxidase and superoxide dismutase. n=6 wells per condition. *p=0.01, Student's t test. (FIG. 17C) Astrocytes isolated from P2-P3 mice were treated with vehicle or 3 ng/ml IL-1α and either S3QEL2 (20 μM), S3QEL1.2 (1 μM), or vehicle for approximately 24 h, and analyzed for levels of released H2O2 using Amplex UltraRed. n=6 wells per condition. *p<0.05, **p<0.01, ***p<0.001, two-way ANOVA with Bonferroni's multiple comparisons test. […]

The subject of series [6] is primary astrocytes. Put plainly: Intracellular ATP levels in primary astrocytes. Type of series: cell-based. The text has this: Antimycin A and myxothiazol were used as positive controls to inhibit mitochondrial respiration and ATP production. n=3 wells per condition. ***p<0.001 vs. vehicle, mixed-effects model with Dunnett's multiple comparisons test.

As for `CCCN(CCC)c1ncnc2c1cnn2-c1ccc(C)c(C)c1` [S3QEL2], in series [1] (PO in almond butter, S3QEL2 5 mg/kg/day, S1QEL1.1 10 mg/kg/day, NTG or hTauP301S mice), the “Adverse health effects such as weight loss or altered behavior” value is recorded as “did not result in obvious adverse health effects”. In series [1] (chow 5, 15 or 30 mg/kg/day, high doses and long treatment durations, adult wild-type mice), the “Tolerability of chow administration” value is given as “tolerated well”. For the same compound, in series [2], the “Phospho-tau levels (Western blotting)” value is recorded as “reduced”. Further, the “Markers of reactivity and immune signaling in microglia” value in series [3] (LPS 100 ng/ml) is “did not affect markers of reactivity and immune signaling”; in series [3] (oligomeric Aβ 3 μM), “did not affect markers of reactivity and immune signaling”. In addition, the “Cell proliferation (relative cell density, CellTiter-Glo)” value in series [4] was “minimal effect”. The “Increases in astrocytic H2O2 levels induced by IL-1α” value in series [5] (IL-1α 3 ng/ml) is “suppressed the increases”. Further, in series [5] (vehicle), the “Baseline astrocytic H2O2 levels” value is on record as “minimal effects”. The “Intracellular ATP levels” value in series [6] was “do not affect intracellular ATP levels”.
